# Values of other authors, collected in patent US20040096492A1, “Cicatrizant hydrocolloidal patch containing hyaluronic acid and chondroitin sulphate” (priority 2001, published 2004).
# System: full thickness (300 mm^2) cutaneous wound
# Settings: rats
substance,measurement,setting,value
sodium chondroitin sulphate,residual area in the treated group relative to the control group,8 days after the second application of 30 mg,half
same,reduction of the damaged surface (planimetry),"one or two applications of 30 mg, vs control",more rapid
same,clinical signs connected with the lesion (edema-exudate),vs control,decreased more quickly
